Experimental data as given in patent US20110212890A1, “METASTIN DERIVATIVE AND USE THEREOF” (Takeda Pharmaceutical Company Limited, priority 2008, published 2011).
Ahx = NCCCCCC(=O)O

Columns and labels:
male Crl: CD (SD) rats [1] = test: Testosterone release action in male rat (plasma total testosterone by radioimmunoassay); format: in vivo
Description: (§1) For male Crl: CD (SD) rats (8 or 10 weeks old), compounds 1 (10 weeks old), 3, 8, 9, 10 and 11 (8 weeks old) (1, 10 or 100 nmol/kg), and metastin (45-54) (PEPTIDE INSTITUTE, INC., 10 or 100 nmol/kg), which were dissolved in physiological saline, were administered subcutaneously to the dorsum. For the control group, a physiological saline was administered subcutaneously to the dorsum. About 0.4 mL of the blood was collected from the tail vein before the administration (0 hour) and after 0.5, 1, 2, 4 hours of the administration of compounds 1, 3, 8, 9, 10 and 11, and metastin (45-54), or physiological saline. The collected blood was well mixed with 12 μL of 10 w/v % EDTA.2Na-containing trasylol solution (Bayer AG), and then separated by centrifugation at 12,000 rpm for 10 minutes, and the supernatant was recovered as the plasma sample. The concentrations of luteinizing hormone (LH) and total testosterone in the plasma were measured with radioimmunoassay (rat LH RIA Immuno-reagent set, National Hormone and Peptide Program, available from Dr. A. F. Parlow, The National Institute of Diabetes and Digestive and Kidney Diseases, and DPC Total Testosterone Kit, Mitsubishi Chemical Formula Iatron, Inc.).

male Crl: CD (SD) rats [2] = test: LH release action in male rat (plasma LH by radioimmunoassay); format: in vivo
Description: as §1

[3] = subcutaneous to the dorsum, 1, 10 or 100 nmol/kg, AUC from 0 hour to 4 hours after the administration, vs control group

Row | Substance | degree of increase in total testosterone concentration in the plasma in comparison to metastin (45-54) (male Crl: CD (SD) rats [1]; subcutaneous) | degree of increase in LH concentration in the plasma in comparison to metastin (45-54) (male Crl: CD (SD) rats [2]; subcutaneous) | dose showing (significant) increase in the total testosterone concentration in the plasma (AUC) (male Crl: CD (SD) rats [1]; [3]) [nmol/kg] | dose showing (significant) increase in the LH concentration in the plasma (AUC) (male Crl: CD (SD) rats [2]; [3]) [nmol/kg]
1 | PEG5K(CS)-CO-Acp-Tyr-Asn-Trp-Asn-Ser-Phe-Gly-Leu-Arg-Phe-NH2 ({PEG5K(CS)‑CO-Ahx}-YNWNSFGLRF-NH2) [compound 1] | greater degree of increase | greater degree of increase | – | –
2 | metastin (45-54): peptide consisting of the N-terminal 45th-54th amino acid sequence of human metastin (SEQ ID NO: 16); PEPTIDE INSTITUTE, INC. (YNWNSFGLRF) | – | – | 100 | 100
